# Measured values as given in article PMC8398451, “Molecular Engineering of Curcumin, an Active Constituent of Curcuma longa L. (Turmeric) of the Family Zingiberaceae with Improved Antiproliferative Activity” (Plants, 2021).
# Columns and labels:
# NCI-H226 = assay: NCI antiproliferative SRB assay, Non-Small Cell Lung Cancer panel; format: cell-based, Human
# T-47D = assay: NCI antiproliferative SRB assay, Breast Cancer panel; format: cell-based, Human
# HCT-15 = assay: NCI antiproliferative SRB assay, Colon Cancer panel; format: cell-based, Human
# COLO 205 = assay: as above; format: cell-based, Human
# BT-549 = assay: NCI antiproliferative SRB assay, Breast Cancer panel; format: cell-based, Human
# LOX IMVI = assay: NCI antiproliferative SRB assay, Melanoma panel; format: cell-based, Human
# CCRF-CEM = assay: NCI antiproliferative SRB assay, Leukemia panel; format: cell-based, Human
# MALME-3M = assay: NCI antiproliferative SRB assay, Melanoma panel; format: cell-based, Human
# HCT-116 = assay: NCI antiproliferative SRB assay, Colon Cancer panel; format: cell-based, Human
# SK-MEL-5 = assay: NCI antiproliferative SRB assay, Melanoma panel; format: cell-based, Human
# [1] = tested on: CNS Cancer cell line panel; assay: NCI antiproliferative assay, panel summary; format: cell-based, Human
# [2] = tested on: Colon Cancer cell line panel; assay: NCI antiproliferative assay, panel summary; format: cell-based, Human
# RXF 393 = assay: NCI antiproliferative SRB assay, Renal Cancer panel; format: cell-based, Human
# HCC-2998 = assay: NCI antiproliferative SRB assay, Colon Cancer panel; format: cell-based, Human
# SK-MEL-2 = assay: NCI antiproliferative SRB assay, Melanoma panel; format: cell-based, Human
# SR = assay: NCI antiproliferative SRB assay, Leukemia panel; format: cell-based, Human
# IGROV1 = assay: NCI antiproliferative SRB assay, Ovarian Cancer panel; format: cell-based, Human
# OVCAR-5 = assay: as above; format: cell-based, Human
# PC-3 = assay: NCI antiproliferative SRB assay, Prostate Cancer panel; format: cell-based, Human
# UO-31 = assay: NCI antiproliferative SRB assay, Renal Cancer panel; format: cell-based, Human
# HS 578T = assay: NCI antiproliferative SRB assay, Breast Cancer panel; format: cell-based, Human
# RPMI-8226 = assay: NCI antiproliferative SRB assay, Leukemia panel; format: cell-based, Human
# NCI-H460 = assay: NCI antiproliferative SRB assay, Non-Small Cell Lung Cancer panel; format: cell-based, Human
# SF-268 = assay: NCI antiproliferative SRB assay, CNS Cancer panel; format: cell-based, Human
# MOLT-4 = assay: NCI antiproliferative SRB assay, Leukemia panel; format: cell-based, Human
# M14 = assay: NCI antiproliferative SRB assay, Melanoma panel; format: cell-based, Human
# EKVX = assay: NCI antiproliferative SRB assay, Non-Small Cell Lung Cancer panel; format: cell-based, Human
# U251 = assay: NCI antiproliferative SRB assay, CNS Cancer panel; format: cell-based; settings: U251
# OVCAR-3 = assay: NCI antiproliferative SRB assay, Ovarian Cancer panel; format: cell-based, Human
# [3] = tested on: Renal Cancer cell line panel; assay: NCI antiproliferative assay, panel summary; format: cell-based, Human
# [4] = Homo sapiens, 5-dose 0.01-100 µM
# [5] = Homo sapiens, 5-dose 0.01-100 µM, read-out: LC50 (the source's name)
# [6] = Homo sapiens, T47D, 5-dose 0.01-100 µM
# [7] = Homo sapiens, 5-dose assay, read-out: Sub Panel MID b (mean GI50 of panel)
compound,measurement,setting,value
COc1cc(/C=C/c2cc(/C=C/c3ccc(O)c(OC)c3)n(C(=O)Nc3ccc(C(F)(F)F)cc3)n2)ccc1O [3c],TGI,NCI-H226; 5-dose 0.01-100 µM,27.6 µM
same,GI50,NCI-H226; [4],7.29 µM
same,CC50,NCI-H226; [5],91.7 µM
same,%GI,NCI-H226; one dose 10 µM,17.33%
same,GP (growth percent),NCI-H226; one dose 10 µM,82.67
same,TGI,T-47D; 5-dose 0.01-100 µM,39.0 µM
same,GI50,T-47D; [6],2.81 µM
same,"LC50 (lethal concentration, 50% cell kill)",T-47D; [6],> 100 µM
same,%GI,T-47D; one dose 10 µM,52.60%
same,GP (growth percent),T-47D; one dose 10 µM,47.40
same,TGI,HCT-15; 5-dose 0.01-100 µM,9.63 µM
same,GI50,HCT-15; [4],2.69 µM
same,CC50,HCT-15; [5],> 100 µM
same,%GI,HCT-15; one dose 10 µM,74.49%
same,GP (growth percent),HCT-15; one dose 10 µM,25.51
same,TGI,COLO 205; 5-dose 0.01-100 µM,4.50 µM
same,GI50,COLO 205; [4],2.05 µM
same,CC50,COLO 205; [5],9.91 µM
same,%GI,COLO 205; one dose 10 µM,48.73%
same,GP (growth percent),COLO 205; one dose 10 µM,51.27
same,TGI,BT-549; 5-dose 0.01-100 µM,3.67 µM
same,GI50,BT-549; [4],1.96 µM
same,CC50,BT-549; [5],6.86 µM
same,%GI,BT-549; one dose 10 µM,81.03%
same,GP (growth percent),BT-549; one dose 10 µM,18.97
same,TGI,LOX IMVI; 5-dose 0.01-100 µM,3.71 µM
same,GI50,LOX IMVI; [4],1.77 µM
same,%GI,LOX IMVI; one dose 10 µM,90.89%
same,GP (growth percent),LOX IMVI; one dose 10 µM,9.11
same,GI50,CCRF-CEM; [4],2.63 µM
same,CC50,CCRF-CEM; [5],> 100 µM
same,%GI,CCRF-CEM; one dose 10 µM,96.58%
same,GP (growth percent),CCRF-CEM; one dose 10 µM,3.42
same,TGI,MALME-3M; 5-dose 0.01-100 µM,8.40 µM
same,GI50,MALME-3M; [4],2.89 µM
same,CC50,MALME-3M; [5],32.6 µM
same,%GI,MALME-3M; one dose 10 µM,47.73%
same,GP (growth percent),MALME-3M; one dose 10 µM,52.27
same,TGI,HCT-116; 5-dose 0.01-100 µM,2.94 µM
same,GI50,HCT-116; [4],1.51 µM
same,CC50,HCT-116; [5],5.7 µM
same,%GI,HCT-116; one dose 10 µM,153.67%
same,GP (growth percent),HCT-116; one dose 10 µM,−53.67
same,TGI,SK-MEL-5; 5-dose 0.01-100 µM,6.89 µM
same,GI50,SK-MEL-5; [4],2.27 µM
same,CC50,SK-MEL-5; [5],28 µM
same,%GI,SK-MEL-5; one dose 10 µM,64.60%
same,GP (growth percent),SK-MEL-5; one dose 10 µM,35.40
same,Mean % GI,[1]; 10 µM,53.38%
same,Selectivity Ratio (MID a:MID b),[1]; 5-dose assay,1.02
same,GI50,[1]; [7],2.78 µM
same,Mean % GI,[2]; 10 µM,73.05%
same,Selectivity Ratio (MID a:MID b),[2]; 5-dose assay,1.31
same,GI50,[2]; [7],2.17 µM
same,TGI,RXF 393; 5-dose 0.01-100 µM,3.73 µM
same,GI50,RXF 393; [4],1.98 µM
same,%GI,RXF 393; one dose 10 µM,77.34%
same,GP (growth percent),RXF 393; one dose 10 µM,22.66
same,TGI,HCC-2998; 5-dose 0.01-100 µM,3.82 µM
same,GI50,HCC-2998; [4],2.04 µM
same,CC50,HCC-2998; [5],71.2 µM
same,%GI,HCC-2998; one dose 10 µM,−2.63%
same,GP (growth percent),HCC-2998; one dose 10 µM,102.63
same,TGI,SK-MEL-2; 5-dose 0.01-100 µM,17.3 µM
same,GI50,SK-MEL-2; [4],3.15 µM
same,CC50,SK-MEL-2; [5],> 100 µM
same,%GI,SK-MEL-2; one dose 10 µM,15.53%
same,GP (growth percent),SK-MEL-2; one dose 10 µM,84.47
same,TGI,SR; 5-dose 0.01-100 µM,>100 µM
same,GI50,SR; [4],1.48 µM
same,CC50,SR; [5],> 100 µM
same,%GI,SR; one dose 10 µM,86.79%
same,GP (growth percent),SR; one dose 10 µM,13.21
same,TGI,IGROV1; 5-dose 0.01-100 µM,11.6 µM
same,GI50,"IGROV1; Homo sapiens, IGROV-1, 5-dose 0.01-100 µM",2.77 µM
same,CC50,"IGROV1; Homo sapiens, IGROV-1, 5-dose 0.01-100 µM, read-out: LC50 (the source's name)",> 100 µM
same,%GI,IGROV1; one dose 10 µM,57.18%
same,GP (growth percent),IGROV1; one dose 10 µM,42.82
same,TGI,OVCAR-5; 5-dose 0.01-100 µM,4.97 µM
same,GI50,OVCAR-5; [4],2.16 µM
same,CC50,OVCAR-5; [5],15.2 µM
same,GP (growth percent),OVCAR-5; one dose 10 µM,115.18
same,TGI,PC-3; 5-dose 0.01-100 µM,13.5 µM
same,GI50,PC-3; [4],3.21 µM
same,CC50,PC-3; [5],> 100 µM
same,%GI,PC-3; one dose 10 µM,61.97%
same,GP (growth percent),PC-3; one dose 10 µM,38.03
same,GI50,UO-31; [4],1.94 µM
same,LC50 (50% lethal concentration),UO-31; [4],> 100 µM
same,%GI,UO-31; one dose 10 µM,57.15%
same,GP (growth percent),UO-31; one dose 10 µM,42.85
same,TGI,HS 578T; 5-dose 0.01-100 µM,60.6 µM
same,GI50,HS 578T; [4],5.1 µM
same,CC50,HS 578T; [5],> 100 µM
same,%GI,HS 578T; one dose 10 µM,48.11%
same,GP (growth percent),HS 578T; one dose 10 µM,51.89
same,TGI,RPMI-8226; 5-dose 0.01-100 µM,6.59 µM
same,GI50,RPMI-8226; [4],2.09 µM
same,CC50,RPMI-8226; [5],> 100 µM
same,%GI,RPMI-8226; one dose 10 µM,100.21%
same,GP (growth percent),RPMI-8226; one dose 10 µM,−0.21
same,TGI,NCI-H460; 5-dose 0.01-100 µM,9.95 µM
same,GI50,NCI-H460; [4],3.22 µM
same,CC50,NCI-H460; [5],50.7 µM
same,%GI,NCI-H460; one dose 10 µM,81.71%
same,GP (growth percent),NCI-H460; one dose 10 µM,18.29
same,TGI,SF-268; 5-dose 0.01-100 µM,15.4 µM
same,GI50,SF-268; [4],2.8 µM
same,CC50,SF-268; [5],> 100 µM
same,%GI,SF-268; one dose 10 µM,62.88%
same,GP (growth percent),SF-268; one dose 10 µM,37.12
same,TGI,MOLT-4; 5-dose 0.01-100 µM,20.0 µM
same,GI50,MOLT-4; [4],2.73 µM
same,CC50,MOLT-4; [5],> 100 µM
same,%GI,MOLT-4; one dose 10 µM,88.91%
same,GP (growth percent),MOLT-4; one dose 10 µM,11.09
same,TGI,M14; 5-dose 0.01-100 µM,4.08 µM
same,GI50,M14; [4],1.94 µM
same,CC50,M14; [5],8.58 µM
same,%GI,M14; one dose 10 µM,70.52%
same,GP (growth percent),M14; one dose 10 µM,29.48
same,TGI,EKVX; 5-dose 0.01-100 µM,38.4 µM
same,GI50,EKVX; [4],3.22 µM
same,CC50,EKVX; [5],> 100 µM
same,%GI,EKVX; one dose 10 µM,38.75%
same,GP (growth percent),EKVX; one dose 10 µM,61.25
same,GI50,"U251; Homo sapiens, U-251, 5-dose 0.01-100 µM, read-out: GI50",2.49 µM
same,CC50,"U251; Homo sapiens, U-251, 5-dose 0.01-100 µM, read-out: LC50 (the source's name)",> 100 µM
same,TGI,U251; 5-dose 0.01-100 µM,6.86 µM
same,%GI,U251; one dose 10 µM,90.29%
same,GP (growth percent),U251; one dose 10 µM,9.71
same,TGI,OVCAR-3; 5-dose 0.01-100 µM,26.7 µM
same,GI50,OVCAR-3; [4],3.41 µM
same,CC50,OVCAR-3; [5],> 100 µM
same,%GI,OVCAR-3; one dose 10 µM,86.24%
same,GP (growth percent),OVCAR-3; one dose 10 µM,13.76
same,GI50,"[3]; Homo sapiens, read-out: Sub Panel MID b (mean GI50 of panel)",3.06 µM
same,Mean % GI,"[3]; Renal Cancer panel, 10 µM",46.37%
same,Selectivity Ratio (MID a:MID b),"[3]; Renal Cancer panel, 5-dose assay",0.93
